Target: T1, FLJ39196 clone-derived protein (human neurocalcin δ) (Homo sapiens, UniProt P61601)
T1 construct: A human full-length cDNA clone was expressed as a protein with an N-terminal His tag; His tag (N); made in house; host or cells: Escherichia coli BL21star(DE3)pLysS (pDEST17 Gateway expression plasmid)
Test: SEC/MS interaction analysis (size exclusion spin column and mass analysis) with FLJ39196 clone-derived protein
Assay type: binding
Excerpt: To analyze the interactions between commonly used drugs and proteins expressed from human full-length cDNA clones while keeping both the proteins and the compounds in non-modified, non-immobilized state, size exclusion chromatography (SEC) and mass analysis were used in combination (FIGS. 1, 2). The specific procedures are shown below.
The compound-protein mixture prepared in step 1 was subjected to chromatography using an SEC column, the compound and the protein were separated by SEC, and the compound that interacted with the bound compound or protein contained in the protein fraction was analyzed using a mass analyzer.
Protein concentrations were measured using BCA Protein Assay (PIERCE), in consideration of the purity calculated by SDS-PAGE.
Mass analysis was performed using LCQ DECA XP (Thermoelectron) or Q-TOFmicro (Micromass), equipped with an ESI probe. The LC pump used was Agilent 1100 (Yokogawa Analytical Systems), and the autosampler used was HTC-PAL (CTC Analytics) equipped with a cooling stacker.
In the SEC method using 384-well spin columns, Unifilter 100 (Whatman), packed with 10 μL (dry volume) of Bio-Gel P6 (BIO-RAD) and swollen with milliQ water, was used as the SEC column. 13.3 μL of a protein-free reference standard or a 25 μM protein standard and 0.7 μL of a multiplied liquid comprising 25 μM of each pharmaceutical compound (5% DMSO aqueous solution) were mixed; 9 μL of this mixture was aliquoted into the SEC spin columns. The SEC spin column was mounted on an acetonitrile-aliquoted 384-well U-bottom plate and centrifuged; the SEC spin column filtrate, which is a protein fraction, was retrieved in 50% acetonitrile. The protein precipitate produced by the acetonitrile was removed via centrifugation and filtration for deproteinization; the resulting filtrate was concentrated by centrifugation and re-dissolved in 10 μL of 50% methanol to obtain a mass analysis sample. The mobile phase supplied to the mass analyzer was 0.1% formic acid/50% methanol solution in the positive ion mode, and 0.1% ammonia/50% methanol solution in the negative ion mode; these mobile phases were used at a flow rate of 40 μL/min. 2-μL of mass analysis samples were injected using an autosampler at 2-minute intervals; the mass spectral intensity of the compound was measured to obtain the spectral intensity of the pharmaceutical compound contained in the SEC spin column filtrate (protein fraction eluted from SEC).

[1] = protein 0 μM (protein-free reference), compound 1 μM
[2] = protein 0 μM (protein-free reference), compound 10 μM
[3] = protein 0 μM (protein-free reference), compound 100 μM
[4] = protein 0 μM (protein-free reference), compound 250 μM
[5] = protein 23.75 μM, compound 1 μM
[6] = protein 23.75 μM, compound 10 μM
[7] = protein 23.75 μM, compound 100 μM
[8] = protein 23.75 μM, compound 250 μM
[9] = protein 47.5 μM, compound 10 μM
[10] = protein 47.5 μM, compound 100 μM
[11] = protein 47.5 μM, compound 250 μM

spectral intensity of the compound in the SEC spin column filtrate (protein fraction) [1] | spectral intensity of the compound in the SEC spin column filtrate (protein fraction) [2] | spectral intensity of the compound in the SEC spin column filtrate (protein fraction) [3] | spectral intensity of the compound in the SEC spin column filtrate (protein fraction) [4] | spectral intensity of the compound in the SEC spin column filtrate (protein fraction) [5] | spectral intensity of the compound in the SEC spin column filtrate (protein fraction) [6] | spectral intensity of the compound in the SEC spin column filtrate (protein fraction) [7] | spectral intensity of the compound in the SEC spin column filtrate (protein fraction) [8] | spectral intensity of the compound in the SEC spin column filtrate (protein fraction) (protein 47.5 μM, compound 1 μM) | spectral intensity of the compound in the SEC spin column filtrate (protein fraction) [9] | spectral intensity of the compound in the SEC spin column filtrate (protein fraction) [10] | spectral intensity of the compound in the SEC spin column filtrate (protein fraction) [11] | Structure (SMILES)
9581826 | 14048756 | 358168208 | 1566782176 | 7408112 | 35655439 | 771184721 | 1841002486 | 7866658 | 40680909 | 1156825217 | 1990085657 | CC(C)COCC(CN(Cc1ccccc1)c1ccccc1)N1CCCC1 (stereo not drawn) [Bepridil]
18341826 | 21106520 | 134902492 | 315067466 | 15884361 | 18323956 | 118321460 | 396979100 | 24572438 | 26691498 | 256481478 | 565679716 | CC(NCCC(c1ccccc1)c1ccccc1)c1ccccc1 (stereo not drawn) [Fendiline]
15652447 | 95722839 | 530918568 | 1025547751 | 10946604 | 88615018 | 727082711 | 1272226745 | 10185140 | 49245292 | 427303459 | 1448860391 | Cc1cc(-c2ccccc2)nnc1NCCN1CCOCC1 [Minaprine]

Further lines, the compound ahead of its results:

Structure (SMILES) | spectral intensity of the compound in the SEC spin column filtrate (protein fraction) [1] | spectral intensity of the compound in the SEC spin column filtrate (protein fraction) [2] | spectral intensity of the compound in the SEC spin column filtrate (protein fraction) [3] | spectral intensity of the compound in the SEC spin column filtrate (protein fraction) [4] | spectral intensity of the compound in the SEC spin column filtrate (protein fraction) [5] | spectral intensity of the compound in the SEC spin column filtrate (protein fraction) [6] | spectral intensity of the compound in the SEC spin column filtrate (protein fraction) [7] | spectral intensity of the compound in the SEC spin column filtrate (protein fraction) [8] | spectral intensity of the compound in the SEC spin column filtrate (protein fraction) (protein 47.5 μM, compound 1 μM) | spectral intensity of the compound in the SEC spin column filtrate (protein fraction) [9] | spectral intensity of the compound in the SEC spin column filtrate (protein fraction) [10] | spectral intensity of the compound in the SEC spin column filtrate (protein fraction) [11]
CCc1oc2ccccc2c1C(=O)c1cc(Br)c(O)c(Br)c1 [Benzbromarone] | 231212 | 300847 | 378850 | 461737 | 357666 | 1258120 | 10722991 | 19795682 | 412022 | 1942184 | 29076230 | 43413619
NS(=O)(=O)c1cc2c(cc1Cl)N=C(CSCc1ccccc1)NS2(=O)=O [Benzthiazide] | 271261 | 505597 | 1323031 | 1475428 | 361168 | 1095223 | 9348303 | 25333199 | 249695 | 1261413 | 16067473 | 28434802
CC(O)(CS(=O)(=O)c1ccc(F)cc1)C(=O)Nc1ccc(C#N)c(C(F)(F)F)c1 (stereo not drawn) [Bicaltamide] | 196020 | 269681 | 3889442 | 1804944 | 264437 | 914364 | 18349511 | 53664833 | 390946 | 4168309 | 24933110 | 112816687
CN(C)CC/C=C1/c2ccccc2Sc2ccc(Cl)cc21 [Chlorprothixene] | 12908294 | 15368592 | 30558420 | 80321853 | 21615977 | 31548696 | 104338961 | 243359670 | 25013147 | 52145413 | 207034486 | 433637183
CC(C)[C@@]1(NC(=O)[C@@H]2C[C@@H]3c4cccc5[nH]cc(c45)C[C@H]3N(C)C2)O[C@@]2(O)[C@@H]3CCCN3C(=O)[C@H](Cc3ccccc3)N2C1=O [Dihydroergocristine] | 25663523 | 10810305 | 75466444 | 137535150 | 68120944 | 327393156 | 910395859 | 871970698 | 95970671 | 593118709 | 1961163889 | 2985742521
OCCN1CCN(CC/C=C2/c3ccccc3Sc3ccc(C(F)(F)F)cc32)CC1 [Flupentixol cis-(Z)] | 57845690 | 59201705 | 138331819 | 1019443291 | 38801184 | 66148127 | 474717521 | 1437323119 | 54783295 | 82852252 | 1301876646 | 1766098462

— patent US8178077B2, “Drug development target protein and target gene, and method of screening” (Reverse Proteomics Research Institute Co., Ltd., priority 2004, dated 2012)
